Source: patent US6696492B1, “Use of L carnitine and its alkanoyl dervatives for the preparation of a medicament useful for the treatment of patients suffering from diabetic and/or dysmetabolic nephropathy” (Sigma-Tau Industrie Farmaceutiche Riunite S.p.A., priority 1999, dated 2004)

Legend:
[1] = renally insufficient children; cited from earlier work
[2] = cited from earlier work
[3] = Clinical pilot study, type 2 diabetes mellitus and renal insufficiency; format: in vivo, human; settings: after 6 months' treatment, 1.5 grams/day oral
Description: (§1) Lastly, a clinical pilot study has been conducted in a small patient sample, consisting of 8 patients suffering from type 2 diabetes mellitus and diabetic nephropathy in the microalbuminuria stage without evidence of frank renal insufficiency and 10 patients suffering from type 2 diabetes mellitus and renal insufficiency (serum creatinine>2 mg/dl and creatinine clearance <40 ml/min).
(§2) Both patient groups were treated with 1.5 grams/day of PLC administered in three distinct doses of 500 mg at three different times of day (1 tablet after breakfast, lunch and dinner) for a total period of 6 months.

[4] = Clinical pilot study, type 2 diabetes mellitus and diabetic nephropathy in the microalbuminuria stage; format: in vivo, human; settings: after 6 months' treatment, 1.5 grams/day oral; before treatment 37.8±4.6; p<0.01; 8 patients
Description: as §1, §2

[5] = Clinical physiology study: forearm blood flow by plethysmography, intravenous infusion of PLC; format: in vivo, human; settings: 6 healthy volunteers, after 60-minute intravenous infusion at 12 micrograms per minute
Description: A clinical physiology study was conducted in human subjects for the purpose of establishing whether PLC was also capable of exerting a vasodilating action at the microcirculatory level. […] This study was conducted in 6 healthy volunteers, whose overall blood flow was measured by plethysmography in the forearm, both in basal conditions and after 60-minute intravenous infusion of PLC at the dose of 12 micrograms per minute. The choice of dose to be administered was based on kinetics calculations, in order to try and achieve a steady state plasma concentration of PLC similar to the one obtained with chronic oral administration of 2 grams of PLC.

[6] = Tolerability in patients with diabetes mellitus and peripheral arteriopathy; format: in vivo, human; settings: 6 months' treatment
[7] = organ ischaemia and reperfusion; cited from earlier work
[8] = Clinical study: forearm blood flow by plethysmography, local intra-arterial PLC, then nitro-L-arginine; format: in vivo, human; settings: 8 healthy volunteers, local intra-arterial administration

SMILES	serum triglyceride levels [1]	functional capability and perfusion of the peripheral nerves ([2]; streptozocin-diabetic rats (Hotta et al. 1996))	plasma lipid levels (total cholesterol, triglycerides, LDL) ([2]; streptozocin-diabetic rats)	24-h proteinuria ([3]; before treatment 6.2±2.3, p<0.01, 10 patients)	creatinine clearance ([3]; before treatment 34.6±4.6, spread ±7.3)	LDL ([3]; before treatment 169±15)	triglycerides ([3]; before treatment 217±75 mg/dl)	urinary microalbumin excretion rate [4]	increase in blood flow as compared to resting basal flow [5]	side effects in man [6]	damage induced by the ischaemia [7]	vasodilatory action [8]
C[N+](C)(C)C[C@H](O)CC(=O)[O-] [L-carnitine]	reduces the serum triglyceride levels											
CCC(=O)O[C@H](CC(=O)[O-])C[N+](C)(C)C [PLC, propionyl L-carnitine]		capable of improving	reduced	3.1±1.2 g/24 h	42.7 mL/min	158 ± 10 mg/dL	192±62 m/dl	21.3±5.1 mg/g creatinine	approximately 25%	no severe unwanted effects	capable of reducing the damage induced by the ischaemia	confirmed the vasodilatory action
